Measured values: US8952043B2, “Benzoxepin PI3K inhibitor compounds and methods of use” (Genentech, Inc., priority 2009, dated 2015)

How the values were obtained:
BT474 = test: CellTiter-Glo cell proliferation assay, BT474; type: cell-based; details: Homo sapiens, BT-474, Breast, mutation status PI3K(amped)
Experimental: (§1) The in vitro potency of Formula I exemplary compounds was measured by the cell proliferation assay, CellTiter-Glo® Luminescent Cell Viability Assay, commercially available from Promega Corp., Madison, Wis. (Example 602). This homogeneous assay method is based on the recombinant expression of Coleoptera luciferase (U.S. Pat. Nos. 5,583,024; 5,674,713; 5,700,670) and determines the number of viable cells in culture based on quantitation of the ATP present, an indicator of metabolically active cells (Crouch et al (1993) J. Immunol. Meth. 160:81-88; U.S. Pat. No. 6,602,677). The CellTiter-Glo® Assay was conducted in 96 or 384 well format, making it amenable to automated high-throughput screening (HTS) (Cree et al (1995) AntiCancer Drugs 6:398-404). The homogeneous assay procedure involves adding the single reagent (CellTiter-Glo® Reagent) directly to cells cultured in serum-supplemented medium. Cell washing, removal of medium and multiple pipetting steps are not required. The system detects as few as 15 cells/well in a 384-well format in 10 minutes after adding reagent and mixing.
(§2) Efficacy of Formula I compounds were measured by a cell proliferation assay employing the following protocol (Promega Corp. Technical Bulletin TB288; Mendoza et al (2002) Cancer Res. 62:5485-5488):
1. […]
(§3) 7. The plate was incubated at room temperature for 10 minutes to stabilize the luminescence signal.
(§4) 8. Luminescence was recorded and reported in graphs as RLU=relative luminescence units.
(§5) Alternatively, cells were seeded at optimal density in a 96 well plate and incubated for 4 days in the presence of test compound. Alamar Blue™ was subsequently added to the assay medium, and cells were incubated for 6 hr before reading at 544 nm excitation, 590 nm emission. EC50 values were calculated using a sigmoidal dose response curve fit. […]
(§6) The anti-proliferative effects of Formula I exemplary compounds were measured by the CellTiter-Glo® Assay against various tumor cell lines, including the following: […]

KPL4 = test: CellTiter-Glo cell proliferation assay, KPL4; type: cell-based; details: Breast, mutation status PI3K
Experimental: as §1, §2
1. […]
as §3, §4, §5, §6

AU565 = test: CellTiter-Glo cell proliferation assay, AU565; type: cell-based; details: Homo sapiens, Breast, mutation status WT
Experimental: as §1, §2
(§7) 1. An aliquot of 100 μl of cell culture containing about 10^4 cells (PC3, Detroit562, or MDAMB361.1) in medium was deposited in each well of a 384-well, opaque-walled plate.
(§8) 2. Control wells were prepared containing medium and without cells.
(§9) 3. The compound was added to the experimental wells and incubated for 3-5 days.
(§10) 4. The plates were equilibrated to room temperature for approximately 30 minutes.
(§11) 5. A volume of CellTiter-Glo Reagent equal to the volume of cell culture medium present in each well was added.
(§12) 6. The contents were mixed for 2 minutes on an orbital shaker to induce cell lysis.
as §3, §4
(§13) Alternatively, cells were seeded at optimal density in a 96 well plate and incubated for 4 days in the presence of test compound. Alamar Blue™ was subsequently added to the assay medium, and cells were incubated for 6 hr before reading at 544 nm excitation, 590 nm emission. EC50 values were calculated using a sigmoidal dose response curve fit. […] It is commonly used as a measure of drug potency.
as §6

PC3 = test: CellTiter-Glo cell proliferation assay, PC3; type: cell-based; details: Homo sapiens, PC-3, Prostate, mutation status PTEN
Experimental: as §1, §2
1. […]
as §3, §4, §5, §6

MFM223 = test: CellTiter-Glo cell proliferation assay, MFM223; type: cell-based; details: Homo sapiens, MFM-223, Breast, mutation status PI3K
Experimental: as §1, §2
1. […]
as §3, §4, §5, §6

T47D = test: CellTiter-Glo cell proliferation assay, T47D; type: cell-based; details: Homo sapiens, Breast, mutation status PI3K
Experimental: as §1, §2
1. […]
as §3, §4, §5, §6

EVSA-T = test: CellTiter-Glo cell proliferation assay, EVSA-T; type: cell-based; details: Homo sapiens, Breast, mutation status PTEN
Experimental: as §1, §2, §7, §8, §9, §10, §11, §12, §3, §4, §13, §6

H2122 = test: CellTiter-Glo cell proliferation assay, H2122; type: cell-based; details: Homo sapiens, NCI-H2122, Lung(NSCLC), mutation status K-RAS
Experimental: as §1, §2
1. […]
as §3, §4, §5, §6

MDA-MB-361.1 = test: CellTiter-Glo cell proliferation assay, MDA-MB-361.1; type: cell-based; details: Breast, mutation status PI3K
Experimental: as §1, §2, §7, §8, §9, §10, §11, §12, §3, §4, §13, §6

U87MG = test: CellTiter-Glo cell proliferation assay, U87MG; type: cell-based; details: Homo sapiens, U-87 MG, Glioma, mutation status PTEN
Experimental: (§14) The in vitro potency of Formula I exemplary compounds was measured by the cell proliferation assay, CellTiter-Glo® Luminescent Cell Viability Assay, commercially available from Promega Corp., Madison, Wis. (Example 602). This homogeneous assay method is based on the recombinant expression of Coleoptera luciferase (U.S. Pat. Nos. 5,583,024; 5,674,713; 5,700,670) and determines the number of viable cells in culture based on quantitation of the ATP present, an indicator of metabolically active cells (Crouch et al (1993) J. Immunol. Meth. 160:81-88; U.S. Pat. No. 6,602,677). […]
(§15) Efficacy of Formula I compounds were measured by a cell proliferation assay employing the following protocol (Promega Corp. Technical Bulletin TB288; Mendoza et al (2002) Cancer Res. 62:5485-5488): […]
as §3, §4, §5

MDST8 = test: CellTiter-Glo cell proliferation assay, MDST8; type: cell-based; details: Colon, mutation status PTEN
Experimental: as §14, §15, §3, §4, §5

KM12 = test: CellTiter-Glo cell proliferation assay, KM12; type: cell-based; details: Homo sapiens, Colon, mutation status PTEN
Experimental: as §14, §15, §3, §4, §5

H520 = test: CellTiter-Glo cell proliferation assay, H520; type: cell-based; details: Homo sapiens, NCI-H520, Lung(NSCLC), mutation status PTEN
Experimental: as §14, §15, §3, §4, §5

HCC1954 = test: CellTiter-Glo cell proliferation assay, HCC1954; type: cell-based; details: Homo sapiens, Breast, mutation status PI3K
Experimental: as §1, §2
1. […]
as §3, §4, §5, §6

p110 alpha PI3K = target: T1, p110 alpha PI3K (Homo sapiens, UniProt P42336); test: p110α (alpha) PI3K binding assay (fluorescence polarization); details: read-out: IC50 (inhibition of PI3K alpha, p110 alpha)
T1 construct: purchased Upstate Cell Signaling Solutions, Charlottesville, Va
Experimental: Determination of the PI3 kinase activity of a Formula I compound is possible by a number of direct and indirect detection methods. Certain exemplary compounds described herein were assayed for their p110α (alpha), and other isoform, PI3K binding activity (Example 601) and in vitro activity against tumor cells (Example 602).
Binding Assays: Initial polarization experiments were performed on an Analyst HT 96-384 (Molecular Devices Corp, Sunnyvale, Calif.). […] After an incubation time of 30 minutes at room temperature, the reactions were stopped by the addition of GRP-1 and PIP3-TAMRA probe (Echelon-Inc., Salt Lake City, Utah.) 100 nM and 5 nM final concentrations respectively. Read with standard cut-off filters for the rhodamine fluorophore (λex=530 nm; λem=590 nm) in 384-well black low volume Proxiplates (PerkinElmer, Wellesley, Mass.) Fluorescence polarization values were plotted as a function of the protein concentration, and the EC50 values were obtained by fitting the data to a 4-parameter equation using KaleidaGraph software (Synergy software, Reading, Pa.). This experiment also establishes the appropriate protein concentration to use in subsequent competition experiments with inhibitors.
Inhibitor IC50 values were determined by addition of the 0.04 mg/mL p110 alpha PI3K (final concentration) combined with PIP2 ([…] final concentration) to wells containing 1:3 serial dilutions of the antagonists in a final concentration of […] ATP (Cell Signaling Technology, Inc., Danvers, Mass.) in the polarization buffer. After an incubation time of 30 minutes at room temperature, the reactions were stopped by the addition of GRP-1 and PIP3-TAMRA probe (Echelon-Inc., Salt Lake City, Utah.) 100 nM and 5 nM final concentrations respectively. Read with standard cut-off filters for the rhodamine fluorophore (λex=530 nm; λem=590 nm) in 384-well black low volume proxi plates (PerkinElmer, Wellesley, Mass.) Fluorescence polarization values were plotted as a function of the antagonist concentration, and the IC50 values were obtained by fitting the data to a 4-parameter equation in Assay Explorer software (MDL, San Ramon, Calif.).
Alternatively, inhibition of PI3K was determined in a radiometric assay using purified, recombinant enzyme and ATP at a concentration of 1 uM. The Formula I compound was serially diluted in 100% DMSO. The kinase reaction was incubated for 1 hr at room temperature, and the reaction was terminated by the addition of PBS. IC50 values were subsequently determined using sigmoidal dose-response curve fit (variable slope).

T1 sequence (P42336 whole entry): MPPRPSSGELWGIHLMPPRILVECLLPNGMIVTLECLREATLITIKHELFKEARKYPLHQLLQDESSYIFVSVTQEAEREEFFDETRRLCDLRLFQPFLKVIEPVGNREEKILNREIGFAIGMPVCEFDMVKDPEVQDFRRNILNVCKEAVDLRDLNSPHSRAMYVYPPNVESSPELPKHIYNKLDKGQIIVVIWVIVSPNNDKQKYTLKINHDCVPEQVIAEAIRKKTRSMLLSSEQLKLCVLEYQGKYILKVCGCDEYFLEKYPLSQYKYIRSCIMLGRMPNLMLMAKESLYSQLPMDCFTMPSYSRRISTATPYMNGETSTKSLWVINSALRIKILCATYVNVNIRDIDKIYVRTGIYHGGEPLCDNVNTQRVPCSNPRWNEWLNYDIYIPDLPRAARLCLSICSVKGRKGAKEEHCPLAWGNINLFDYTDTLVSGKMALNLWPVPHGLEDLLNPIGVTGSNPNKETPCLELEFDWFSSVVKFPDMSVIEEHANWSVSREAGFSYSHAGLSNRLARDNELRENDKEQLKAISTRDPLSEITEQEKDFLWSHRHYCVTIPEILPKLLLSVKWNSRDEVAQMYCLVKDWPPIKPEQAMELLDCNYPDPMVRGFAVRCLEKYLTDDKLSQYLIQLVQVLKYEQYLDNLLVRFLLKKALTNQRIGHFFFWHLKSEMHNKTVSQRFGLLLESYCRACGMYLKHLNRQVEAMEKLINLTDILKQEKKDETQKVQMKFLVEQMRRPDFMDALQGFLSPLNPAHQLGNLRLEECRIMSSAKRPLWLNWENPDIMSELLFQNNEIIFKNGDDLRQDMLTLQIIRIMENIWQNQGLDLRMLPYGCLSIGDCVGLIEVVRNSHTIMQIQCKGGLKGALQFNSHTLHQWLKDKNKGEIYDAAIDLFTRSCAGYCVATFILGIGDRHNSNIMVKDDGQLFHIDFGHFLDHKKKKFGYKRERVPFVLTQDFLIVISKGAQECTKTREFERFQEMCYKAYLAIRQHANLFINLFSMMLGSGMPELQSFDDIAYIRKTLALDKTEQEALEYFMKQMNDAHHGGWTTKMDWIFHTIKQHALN
T1 sequence (P27986 whole entry partner): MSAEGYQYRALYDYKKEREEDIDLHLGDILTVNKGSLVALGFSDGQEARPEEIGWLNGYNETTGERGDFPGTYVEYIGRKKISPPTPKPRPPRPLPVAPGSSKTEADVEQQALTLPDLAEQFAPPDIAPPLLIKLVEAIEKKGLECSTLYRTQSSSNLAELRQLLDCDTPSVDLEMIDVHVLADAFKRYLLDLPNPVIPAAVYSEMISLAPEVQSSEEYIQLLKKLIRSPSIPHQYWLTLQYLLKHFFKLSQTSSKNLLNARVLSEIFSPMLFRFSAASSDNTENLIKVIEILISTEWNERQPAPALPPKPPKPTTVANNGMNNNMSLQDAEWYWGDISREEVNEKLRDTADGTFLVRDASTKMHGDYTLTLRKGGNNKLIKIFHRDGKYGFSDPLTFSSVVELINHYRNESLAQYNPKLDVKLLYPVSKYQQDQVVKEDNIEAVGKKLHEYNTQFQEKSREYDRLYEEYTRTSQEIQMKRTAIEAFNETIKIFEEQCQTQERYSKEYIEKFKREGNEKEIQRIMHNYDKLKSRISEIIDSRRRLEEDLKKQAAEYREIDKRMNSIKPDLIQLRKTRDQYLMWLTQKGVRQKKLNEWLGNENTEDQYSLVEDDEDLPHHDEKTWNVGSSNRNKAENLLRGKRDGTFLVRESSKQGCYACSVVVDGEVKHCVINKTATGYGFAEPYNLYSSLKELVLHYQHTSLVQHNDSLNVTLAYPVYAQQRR

CC(C)n1ncnc1-c1nc2c(s1)CCOc1cc(C3CCNCC3)ccc1-2 [compound 375, 2-(2-isopropyl-2H-[1,2,4]triazol-3-yl)-8-piperidin-4-yl-4,5-dihydro-6-oxa-3-thia-1-aza-benzo[e]azulene]
EC50 (BT474): 428 nM
EC50 (KPL4): 151 nM
EC50 (AU565): 241 nM
EC50 (PC3): 145 nM
EC50 (MFM223): 739 nM
EC50 (T47D): 145 nM
EC50 (EVSA-T): 225 nM
EC50 (H2122): 1170 nM
EC50 (MDA-MB-361.1): 1090 nM
EC50 (U87MG): 858 nM
EC50 (MDST8): 1740 nM
EC50 (KM12): 1750 nM
EC50 (H520): 226 nM
EC50 (HCC1954): 348 nM

CN(CCC#N)C(=O)c1nc2c(s1)CCOc1cc(-c3cn[nH]c3)ccc1-2 [compound 153, 8-(1H-Pyrazol-4-yl)-4,5-dihydro-6-oxa-3-thia-1-aza-benzo[e]azulene-2-carboxylic acid (2-cyano-ethyl)-methyl-amide]
IC50 (p110 alpha PI3K): 58 nM

CC(C)N(CCO)C(=O)c1nc2c(s1)CCOc1cc(-c3cn[nH]c3)ccc1-2 [compound 103, 8-(1H-Pyrazol-4-yl)-4,5-dihydro-6-oxa-3-thia-1-aza-benzo[e]azulene-2-carboxylic acid (2-hydroxy-ethyl)-isopropyl-amide]
IC50 (p110 alpha PI3K): 1.8 nM

Nc1nc(-c2cc3c(s2)-c2ccc(C(=O)NCCO)cc2OCC3)n(-c2ccc(F)cc2F)n1 [compound 151, 2-(3-amino-1-(2,4-difluorophenyl)-1H-1,2,4-triazol-5-yl)-N-(2-hydroxyethyl)-4,5-dihydrobenzo[b]thieno[2,3-d]oxepine-8-carboxamide]
IC50 (p110 alpha PI3K): 0.2 nM

CC(C)n1nc(N)nc1-c1nc2c(s1)CCOc1cc(C3CN(CCS(C)(=O)=O)C3)ccc1-2 [compound 463, 1-Isopropyl-5-{8-[1-(2-methanesulfonyl-ethyl)-azetidin-3-yl]-4,5-dihydro-6-oxa-3-thia-1-aza-benzo[e]azulen-2-yl}-1H-[1,2,4]triazol-3-ylamine]
EC50 (BT474): 638 nM
EC50 (KPL4): 103 nM
EC50 (AU565): 225 nM
EC50 (PC3): 185 nM
EC50 (MFM223): 559 nM
EC50 (T47D): 185 nM
EC50 (EVSA-T): 746 nM
EC50 (H2122): 542 nM
EC50 (MDA-MB-361.1): 855 nM
EC50 (U87MG): 2090 nM
EC50 (MDST8): 1720 nM
EC50 (KM12): 321 nM
EC50 (H520): 972 nM
EC50 (HCC1954): 340 nM

CC(C)N(C)C(=O)c1nc2c(s1)CCOc1cc(-c3cn[nH]c3)ccc1-2 [compound 102, 8-(1H-Pyrazol-4-yl)-4,5-dihydro-6-oxa-3-thia-1-aza-benzo[e]azulene-2-carboxylic acid isopropyl-methyl-amide]
IC50 (p110 alpha PI3K): 5.1 nM

CC(C)n1ncnc1-c1cc2c(s1)-c1ccc(-c3cccc(C(=O)O)c3)cc1OCC2 [compound 147, 3-(2-(1-isopropyl-1H-1,2,4-triazol-5-yl)-4,5-dihydrobenzo[b]thieno[2,3-d]oxepin-8-yl)benzoic acid]
IC50 (p110 alpha PI3K): 21 nM

O=C(c1nc2c(s1)CCOc1cc(-c3cn[nH]c3)ccc1-2)N1CCC[C@@H]1CO [compound 101, ((R)-2-Hydroxymethyl-pyrrolidin-1-yl)-[8-(1H-pyrazol-4-yl)-4,5-dihydro-6-oxa-3-thia-1-aza-benzo[e]azulen-2-yl]-methanone]
IC50 (p110 alpha PI3K): 31 nM

O=S1(=O)CCN(CCNc2ccc3c(n2)-c2sc(-c4ncnn4-c4ccc(F)cc4F)cc2CCO3)CC1 [compound 109, {2-[2-(2,4-Difluoro-phenyl)-2H-[1,2,4]triazol-3-yl]-4,5-dihydro-6-oxa-1-thia-10-aza-benzo[e]azulen-9-yl}-[2-(1,1-dioxo-1S-thiomorpholin-4-yl)-ethyl]-amine]
IC50 (p110 alpha PI3K): 1.3 nM

O=C(NCc1ccc2c(c1)OCCc1sc(-c3ncnn3CC(F)(F)F)nc1-2)c1cn[nH]c1 [compound 106, 1H-Pyrazole-4-carboxylic acid {2-[2-(2,2,2-trifluoro-ethyl)-2H-[1,2,4]triazol-3-yl]-4,5-dihydro-6-oxa-3-thia-1-aza-benzo[e]azulen-8-ylmethyl}-amide]
IC50 (p110 alpha PI3K): 5.7 nM

CNC(=O)c1ccc2c(c1)OCCc1cc(-c3nc(N)nn3-c3ccc(F)cc3F)sc1-2 [compound 127, 2-(3-amino-1-(2,4-difluorophenyl)-1H-1,2,4-triazol-5-yl)-N-methyl-4,5-dihydrobenzo[b]thieno[2,3-d]oxepine-8-carboxamide]
EC50 (AU565): 37 nM
EC50 (EVSA-T): 147 nM
EC50 (MDA-MB-361.1): 60 nM
IC50 (p110 alpha PI3K): 0.05 nM
